In ChEMBL document CHEMBL1201862, “PubChem BioAssay data set” (2004):
Activity calls are given as the source filed them.

Legend:
[1] = biological target: Sphingosine 1-phosphate receptor 2 (Homo sapiens, UniProt O95136); assay: Dose Response Cell Based Assay for Agonists of the S1P2 Receptor of Purchased Analogues. [Related pubchem assays: 729, 843, 854, 736 ]; format: functional
Bcl-2-related protein A1 [2] = biological target: T1, Bcl-2-related protein A1 (Mus musculus, UniProt Q07440); assay: Bfl-1 binding inhibitors, SAR follow-up, biochemical, fluorescence polarization (AID 1070)
T1 sequence (Q07440 whole entry): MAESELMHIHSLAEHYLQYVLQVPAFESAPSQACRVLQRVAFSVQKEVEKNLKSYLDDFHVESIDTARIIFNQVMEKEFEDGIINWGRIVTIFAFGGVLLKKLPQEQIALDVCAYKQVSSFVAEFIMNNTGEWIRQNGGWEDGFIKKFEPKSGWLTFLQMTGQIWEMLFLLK

Bcl-2-related protein A1 [3] = biological target: T1, Bcl-2-related protein A1; assay: small-molecule antagonists of Bfl-1/BH3 interaction – biochemical, TR-FRET, mouse Bfl-1, confirmation (AID 621);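 note: TR-FRET binding of GST-Bfl-1 to FITC-labelled Bid peptide via terbium antibody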
[4] = biological target: Glyceraldehyde-3-phosphate dehydrogenase (Homo sapiens, UniProt P04406)
[5] = viability of uninfected HEp-2 cells – cell-based, HTS, cytotoxicity control for RSV inhibitor project, dose response (AID 2410); format: functional; conditions: human respiratory syncytial virus
cells [6] = assay: cells
cells [7] = assay: cells; remark: listed apart in the source
Protein RecA = biological target: T2, Protein RecA (Mycobacterium tuberculosis, UniProt P9WHJ3); assay: Fluorescence Cell-Free Homogeneous Dose Retest to Identify Inhibitors of RecA-Intein Splicing Activity. [Related pubchem assays (depositor defined):AID2097, AID2223, AID489010, AID492950]; format: functional
T2 sequence (P9WHJ3 whole entry): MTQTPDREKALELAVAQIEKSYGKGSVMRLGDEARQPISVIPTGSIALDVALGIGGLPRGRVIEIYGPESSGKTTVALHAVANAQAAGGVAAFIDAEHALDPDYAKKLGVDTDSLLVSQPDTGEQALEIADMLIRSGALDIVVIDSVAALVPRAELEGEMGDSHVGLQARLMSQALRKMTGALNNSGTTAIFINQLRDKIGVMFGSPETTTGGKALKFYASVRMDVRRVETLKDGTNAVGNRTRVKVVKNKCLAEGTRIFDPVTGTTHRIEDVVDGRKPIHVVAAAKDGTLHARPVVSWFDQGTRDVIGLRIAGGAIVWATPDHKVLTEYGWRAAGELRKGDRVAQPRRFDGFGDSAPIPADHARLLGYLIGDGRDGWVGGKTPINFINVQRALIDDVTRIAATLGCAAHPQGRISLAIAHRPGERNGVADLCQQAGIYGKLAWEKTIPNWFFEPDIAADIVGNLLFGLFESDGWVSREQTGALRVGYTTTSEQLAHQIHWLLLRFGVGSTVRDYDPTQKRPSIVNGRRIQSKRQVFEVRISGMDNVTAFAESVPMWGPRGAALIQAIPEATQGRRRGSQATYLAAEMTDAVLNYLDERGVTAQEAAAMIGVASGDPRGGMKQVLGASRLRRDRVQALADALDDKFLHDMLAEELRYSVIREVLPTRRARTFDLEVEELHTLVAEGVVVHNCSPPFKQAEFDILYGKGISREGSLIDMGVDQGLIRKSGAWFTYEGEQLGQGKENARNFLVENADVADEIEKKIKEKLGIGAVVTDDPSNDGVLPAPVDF

[8] = Trypanosoma cruzi growth suppression in host cells – NIH3T3 host cells, beta-gal luminescence, confirmation (AID 2044); format: functional, cell-based;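 note: intracellular parasites grown in NIH/3T3 mouse fibroblasts as host cells; luminescent beta-galactosidase reporter signal from transgenic T. cruzi replicating inside host cells; inhibitors lower the luminescence signal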
[9] = NIH3T3 cell viability loss – ATP luminescence, mouse fibroblasts, counter-screen, dose response (AID 2010); format: functional, cell-based;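 note: cells exposed to compound for about 90 hours before reading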
[10] = biological target: T3, Replicative DNA helicase DnaB (Mycobacterium tuberculosis, UniProt P9WMR3); assay: DnaB intein splicing inhibitors, dose response, biochemical, cell-free fluorescence (AID 449749); format: functional
T3 sequence (P9WMR3 whole entry): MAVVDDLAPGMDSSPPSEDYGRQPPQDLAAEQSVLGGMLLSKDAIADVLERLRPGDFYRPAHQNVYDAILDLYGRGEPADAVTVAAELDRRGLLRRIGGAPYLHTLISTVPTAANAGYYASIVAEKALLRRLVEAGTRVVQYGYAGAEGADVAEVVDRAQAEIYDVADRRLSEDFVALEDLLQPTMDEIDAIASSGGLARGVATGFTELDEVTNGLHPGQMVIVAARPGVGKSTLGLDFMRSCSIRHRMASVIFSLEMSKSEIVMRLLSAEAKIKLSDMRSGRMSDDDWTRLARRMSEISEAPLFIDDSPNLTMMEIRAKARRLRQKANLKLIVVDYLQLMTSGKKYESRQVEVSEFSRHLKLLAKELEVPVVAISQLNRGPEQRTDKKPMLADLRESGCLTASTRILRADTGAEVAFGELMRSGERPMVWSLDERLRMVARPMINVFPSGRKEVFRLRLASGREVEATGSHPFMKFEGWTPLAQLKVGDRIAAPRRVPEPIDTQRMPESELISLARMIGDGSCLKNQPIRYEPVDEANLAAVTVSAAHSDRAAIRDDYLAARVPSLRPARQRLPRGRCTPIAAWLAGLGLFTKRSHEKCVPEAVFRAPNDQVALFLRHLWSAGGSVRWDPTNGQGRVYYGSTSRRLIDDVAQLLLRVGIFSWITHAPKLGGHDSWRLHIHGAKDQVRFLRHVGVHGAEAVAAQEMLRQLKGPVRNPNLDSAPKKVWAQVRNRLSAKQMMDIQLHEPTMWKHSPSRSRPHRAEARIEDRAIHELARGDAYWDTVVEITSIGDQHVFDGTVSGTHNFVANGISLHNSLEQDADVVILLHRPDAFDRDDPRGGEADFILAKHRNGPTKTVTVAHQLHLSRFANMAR

[11] = biological target: T4, Dual specificity protein phosphatase 6 (Rattus norvegicus, UniProt Q64346); assay: inhibition of rat DUSP6 enzyme activity – biochemical, in vitro, primary screen (AID 425)
T4 sequence (Q64346 whole entry): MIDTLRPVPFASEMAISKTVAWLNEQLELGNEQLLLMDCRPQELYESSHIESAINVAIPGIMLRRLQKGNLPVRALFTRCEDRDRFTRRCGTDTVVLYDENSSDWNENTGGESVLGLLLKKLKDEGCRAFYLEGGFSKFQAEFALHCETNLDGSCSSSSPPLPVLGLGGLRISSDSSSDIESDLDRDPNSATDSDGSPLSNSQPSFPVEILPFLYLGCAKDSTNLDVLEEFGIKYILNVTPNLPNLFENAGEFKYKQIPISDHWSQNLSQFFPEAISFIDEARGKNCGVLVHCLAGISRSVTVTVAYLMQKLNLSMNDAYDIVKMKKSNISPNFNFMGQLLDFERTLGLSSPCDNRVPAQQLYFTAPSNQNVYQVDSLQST

[12] = biological target: T4, Dual specificity protein phosphatase 6; format: functional
Genome polyprotein = Genome polyprotein (Hepatitis C virus, UniProt Q2Q167); assay: disruption of hepatitis C core self-association – biochemical, TR-FRET, dose response (AID 2159); parameters: species or system Hepacivirus hominis;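 note: blocks dimerization of HCV core protein measured by TR-FRET between tagged core106 pairs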
[13] = biological target: T4, Dual specificity protein phosphatase 6
Bcl-2-like protein 1 = Bcl-2-like protein 1 (Homo sapiens, UniProt Q07817); assay: blockers of BCLXL peptide binding – biochemical, fluorescence polarization, 1536-well, selectivity assay for MCL1 inhibitor project, dose response (AID 2218)
[14] = biological target: T5, Tyrosine-protein phosphatase non-receptor type 7 (Homo sapiens, UniProt P35236); format: functional
T5 sequence (P35236 whole entry): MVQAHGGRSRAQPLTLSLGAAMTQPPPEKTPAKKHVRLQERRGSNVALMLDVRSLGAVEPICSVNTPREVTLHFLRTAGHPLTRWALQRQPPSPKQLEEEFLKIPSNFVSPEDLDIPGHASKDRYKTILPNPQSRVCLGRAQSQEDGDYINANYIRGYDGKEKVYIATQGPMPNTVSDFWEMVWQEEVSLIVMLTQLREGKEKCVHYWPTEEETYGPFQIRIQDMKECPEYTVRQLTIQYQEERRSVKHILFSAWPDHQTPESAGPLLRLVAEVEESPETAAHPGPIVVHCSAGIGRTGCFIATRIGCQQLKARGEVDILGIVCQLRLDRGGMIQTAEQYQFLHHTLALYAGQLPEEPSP

[15] = biological target: Eukaryotic translation initiation factor 4E (Mus musculus, UniProt P63073); assay: blockers of eIF4G binding by eIF4E – biochemical, TR-FRET, dose response (AID 855); format: functional;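 note: potency for disrupting eIF4E binding to eIF4GI seen as loss of FRET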
[16] = biological target: Induced myeloid leukemia cell differentiation protein Mcl-1 (Homo sapiens, UniProt Q07820); assay: blockers of MCL1 binding to BIM peptide – biochemical, fluorescence polarization, BIM-BH3 peptide, 1536-well, dose response (AID 2217)
[17] = biological target: Mothers against decapentaplegic homolog 3 (Homo sapiens, UniProt P84022); assay: inhibitors of SMAD-driven TGF-beta signaling – dose response (AID 715); format: functional
Mucolipin-3 = biological target: T6, Mucolipin-3 (Homo sapiens, UniProt Q8TDD5); assay: Dose response cell-based high-throughput screening assay for agonists of the transient receptor potential channel ML3 (TRPML3). [Related pubchem assays: 1526, 1424, 1448 ]; format: functional
T6 sequence (Q8TDD5 whole entry): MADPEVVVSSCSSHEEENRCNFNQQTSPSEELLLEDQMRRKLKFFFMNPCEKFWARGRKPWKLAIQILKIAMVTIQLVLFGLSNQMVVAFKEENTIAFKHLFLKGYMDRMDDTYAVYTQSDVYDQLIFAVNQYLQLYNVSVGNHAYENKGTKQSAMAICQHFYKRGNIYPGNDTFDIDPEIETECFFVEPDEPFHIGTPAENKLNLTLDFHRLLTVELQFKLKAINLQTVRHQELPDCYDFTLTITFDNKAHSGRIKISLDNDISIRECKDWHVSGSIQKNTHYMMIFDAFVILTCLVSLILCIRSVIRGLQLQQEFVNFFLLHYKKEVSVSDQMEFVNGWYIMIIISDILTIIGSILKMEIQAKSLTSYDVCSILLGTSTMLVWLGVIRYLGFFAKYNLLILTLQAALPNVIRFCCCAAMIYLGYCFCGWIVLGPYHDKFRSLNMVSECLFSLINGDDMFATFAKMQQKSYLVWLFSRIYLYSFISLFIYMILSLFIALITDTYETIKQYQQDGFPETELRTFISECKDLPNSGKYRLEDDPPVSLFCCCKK

Ion channel NompC = Ion channel NompC (Danio rerio, UniProt Q7T1G6); assay: Fluorescence counterscreen assay for TRPML3 agonists: dose response cell-based high-throughput screening assay to identify agonists of the transient receptor potential channel N1 (TRPN1). [Related pubchem assays: 1526, 1424, 1448 ]; format: functional
[18] = biological target: T7, Neuropeptide Y receptor type 2 (Homo sapiens, UniProt P49146); assay: IC50 for human NPY-Y2 blockade – cell-based, counter-screen for NPY-Y1 antagonist project, dose response (AID 1278); format: functional
T7 sequence (P49146 whole entry): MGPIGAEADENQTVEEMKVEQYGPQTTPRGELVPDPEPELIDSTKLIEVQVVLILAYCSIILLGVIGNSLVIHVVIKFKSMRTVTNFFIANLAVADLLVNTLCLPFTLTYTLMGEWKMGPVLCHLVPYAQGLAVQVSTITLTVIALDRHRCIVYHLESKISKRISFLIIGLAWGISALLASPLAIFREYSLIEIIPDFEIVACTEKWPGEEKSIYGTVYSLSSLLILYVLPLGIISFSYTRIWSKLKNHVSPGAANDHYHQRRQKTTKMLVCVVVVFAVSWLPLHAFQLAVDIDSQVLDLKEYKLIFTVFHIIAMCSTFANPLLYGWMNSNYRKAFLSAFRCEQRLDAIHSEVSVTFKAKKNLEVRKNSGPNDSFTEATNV

[19] = biological target: T8, Neuropeptide Y receptor type 1 (Homo sapiens, UniProt P25929); assay: IC50 of human NPY-Y1 blockers – cell-based, dose response (AID 1277); format: functional
T8 sequence (P25929 whole entry): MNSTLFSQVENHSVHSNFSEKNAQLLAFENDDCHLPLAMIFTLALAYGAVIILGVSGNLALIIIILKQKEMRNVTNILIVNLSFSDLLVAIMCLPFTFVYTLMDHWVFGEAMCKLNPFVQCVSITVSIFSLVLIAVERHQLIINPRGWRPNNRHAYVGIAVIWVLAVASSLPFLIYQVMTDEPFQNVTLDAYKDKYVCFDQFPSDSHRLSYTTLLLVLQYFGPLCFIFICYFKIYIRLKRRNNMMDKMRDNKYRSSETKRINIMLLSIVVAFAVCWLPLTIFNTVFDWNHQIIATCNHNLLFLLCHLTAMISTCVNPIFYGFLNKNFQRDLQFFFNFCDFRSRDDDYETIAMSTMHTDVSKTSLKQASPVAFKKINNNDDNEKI

Glyceraldehyde-3-phosphate dehydrogenase, sequence (P04406 whole entry): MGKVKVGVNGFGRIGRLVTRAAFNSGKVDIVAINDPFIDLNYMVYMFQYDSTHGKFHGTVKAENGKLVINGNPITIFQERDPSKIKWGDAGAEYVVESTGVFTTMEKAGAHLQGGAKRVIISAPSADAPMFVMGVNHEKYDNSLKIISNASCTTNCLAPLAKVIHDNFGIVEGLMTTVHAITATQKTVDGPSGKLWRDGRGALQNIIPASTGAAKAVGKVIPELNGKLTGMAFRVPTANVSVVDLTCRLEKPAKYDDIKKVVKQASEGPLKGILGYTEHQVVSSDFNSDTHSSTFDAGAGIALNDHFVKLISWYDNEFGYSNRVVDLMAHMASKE
Bcl-2-like protein 1, sequence (Q07817 whole entry): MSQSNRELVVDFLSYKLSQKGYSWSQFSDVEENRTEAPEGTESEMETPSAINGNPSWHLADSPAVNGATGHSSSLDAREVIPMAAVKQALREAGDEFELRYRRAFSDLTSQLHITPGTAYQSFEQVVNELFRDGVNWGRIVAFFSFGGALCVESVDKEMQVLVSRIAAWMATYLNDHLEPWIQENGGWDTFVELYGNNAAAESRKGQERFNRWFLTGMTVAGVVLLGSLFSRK
Genome polyprotein, sequence (Q2Q167 whole entry): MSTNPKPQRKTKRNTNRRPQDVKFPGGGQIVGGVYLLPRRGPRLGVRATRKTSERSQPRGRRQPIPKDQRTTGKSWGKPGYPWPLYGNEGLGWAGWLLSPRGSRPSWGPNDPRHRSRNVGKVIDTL
Ion channel NompC, sequence (Q7T1G6 whole entry): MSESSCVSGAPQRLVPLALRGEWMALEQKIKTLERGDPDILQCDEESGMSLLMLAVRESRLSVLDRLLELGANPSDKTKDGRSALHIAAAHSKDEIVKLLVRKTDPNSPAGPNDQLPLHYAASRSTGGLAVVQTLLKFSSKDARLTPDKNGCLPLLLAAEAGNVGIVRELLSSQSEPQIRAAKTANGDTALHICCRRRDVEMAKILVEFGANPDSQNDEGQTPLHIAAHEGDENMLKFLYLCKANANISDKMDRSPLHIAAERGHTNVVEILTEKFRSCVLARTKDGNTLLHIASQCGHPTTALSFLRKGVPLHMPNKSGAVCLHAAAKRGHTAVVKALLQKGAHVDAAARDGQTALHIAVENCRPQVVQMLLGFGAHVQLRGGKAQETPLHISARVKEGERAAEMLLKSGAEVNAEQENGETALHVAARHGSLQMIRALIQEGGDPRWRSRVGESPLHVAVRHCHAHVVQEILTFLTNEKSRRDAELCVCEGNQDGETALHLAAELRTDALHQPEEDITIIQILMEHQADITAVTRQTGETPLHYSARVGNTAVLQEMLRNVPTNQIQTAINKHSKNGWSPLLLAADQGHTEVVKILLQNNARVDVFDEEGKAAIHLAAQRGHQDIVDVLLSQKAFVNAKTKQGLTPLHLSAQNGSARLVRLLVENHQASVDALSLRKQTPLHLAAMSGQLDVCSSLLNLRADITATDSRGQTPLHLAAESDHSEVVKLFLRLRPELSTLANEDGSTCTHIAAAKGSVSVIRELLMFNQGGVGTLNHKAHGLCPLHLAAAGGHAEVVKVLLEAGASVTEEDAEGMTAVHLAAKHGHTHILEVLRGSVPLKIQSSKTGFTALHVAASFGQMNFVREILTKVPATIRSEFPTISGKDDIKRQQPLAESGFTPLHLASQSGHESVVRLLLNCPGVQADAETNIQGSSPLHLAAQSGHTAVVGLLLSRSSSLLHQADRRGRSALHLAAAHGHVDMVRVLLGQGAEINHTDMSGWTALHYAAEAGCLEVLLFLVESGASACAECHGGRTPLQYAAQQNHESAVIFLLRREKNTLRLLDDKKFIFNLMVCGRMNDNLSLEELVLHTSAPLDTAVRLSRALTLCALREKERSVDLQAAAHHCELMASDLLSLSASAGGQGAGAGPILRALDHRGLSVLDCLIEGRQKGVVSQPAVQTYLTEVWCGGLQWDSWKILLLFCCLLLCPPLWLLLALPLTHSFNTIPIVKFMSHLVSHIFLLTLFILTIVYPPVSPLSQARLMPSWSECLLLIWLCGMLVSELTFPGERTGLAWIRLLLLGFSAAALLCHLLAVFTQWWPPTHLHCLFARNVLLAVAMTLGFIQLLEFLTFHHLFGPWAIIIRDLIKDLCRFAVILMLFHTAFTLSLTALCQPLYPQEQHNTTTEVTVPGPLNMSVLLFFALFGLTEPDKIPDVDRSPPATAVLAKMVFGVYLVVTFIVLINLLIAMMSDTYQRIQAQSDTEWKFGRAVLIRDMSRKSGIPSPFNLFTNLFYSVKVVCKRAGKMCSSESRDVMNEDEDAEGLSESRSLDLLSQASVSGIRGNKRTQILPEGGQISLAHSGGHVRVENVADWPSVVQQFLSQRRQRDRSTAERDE
Mothers against decapentaplegic homolog 3, sequence (P84022 whole entry): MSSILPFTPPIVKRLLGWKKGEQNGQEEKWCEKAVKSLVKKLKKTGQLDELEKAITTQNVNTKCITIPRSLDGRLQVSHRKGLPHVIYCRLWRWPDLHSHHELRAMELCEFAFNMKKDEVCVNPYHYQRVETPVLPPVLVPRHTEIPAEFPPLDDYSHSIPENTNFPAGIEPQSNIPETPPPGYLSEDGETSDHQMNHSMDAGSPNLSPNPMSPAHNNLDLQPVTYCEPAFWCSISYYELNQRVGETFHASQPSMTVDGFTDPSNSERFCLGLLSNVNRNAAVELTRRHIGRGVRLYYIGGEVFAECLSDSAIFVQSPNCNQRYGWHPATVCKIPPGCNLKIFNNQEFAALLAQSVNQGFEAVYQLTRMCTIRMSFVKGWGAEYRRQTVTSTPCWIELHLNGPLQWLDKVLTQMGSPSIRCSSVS
Sphingosine 1-phosphate receptor 2, sequence (O95136 whole entry): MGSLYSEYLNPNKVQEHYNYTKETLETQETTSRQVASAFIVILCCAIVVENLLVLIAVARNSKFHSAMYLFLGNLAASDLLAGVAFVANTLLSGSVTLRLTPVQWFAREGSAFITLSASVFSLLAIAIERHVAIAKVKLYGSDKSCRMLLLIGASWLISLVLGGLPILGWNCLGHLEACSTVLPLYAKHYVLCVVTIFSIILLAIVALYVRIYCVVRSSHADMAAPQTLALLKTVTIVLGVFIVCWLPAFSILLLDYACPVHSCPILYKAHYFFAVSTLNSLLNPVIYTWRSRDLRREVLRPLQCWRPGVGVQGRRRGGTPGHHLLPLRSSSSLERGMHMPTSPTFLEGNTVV
Eukaryotic translation initiation factor 4E, sequence (P63073 whole entry): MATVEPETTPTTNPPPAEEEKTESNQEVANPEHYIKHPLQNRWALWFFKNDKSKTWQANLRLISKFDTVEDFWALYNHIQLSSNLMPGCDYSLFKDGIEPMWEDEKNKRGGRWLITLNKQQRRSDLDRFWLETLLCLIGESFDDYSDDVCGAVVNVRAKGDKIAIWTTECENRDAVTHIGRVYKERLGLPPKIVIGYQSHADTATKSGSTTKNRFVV
Induced myeloid leukemia cell differentiation protein Mcl-1, sequence (Q07820 whole entry): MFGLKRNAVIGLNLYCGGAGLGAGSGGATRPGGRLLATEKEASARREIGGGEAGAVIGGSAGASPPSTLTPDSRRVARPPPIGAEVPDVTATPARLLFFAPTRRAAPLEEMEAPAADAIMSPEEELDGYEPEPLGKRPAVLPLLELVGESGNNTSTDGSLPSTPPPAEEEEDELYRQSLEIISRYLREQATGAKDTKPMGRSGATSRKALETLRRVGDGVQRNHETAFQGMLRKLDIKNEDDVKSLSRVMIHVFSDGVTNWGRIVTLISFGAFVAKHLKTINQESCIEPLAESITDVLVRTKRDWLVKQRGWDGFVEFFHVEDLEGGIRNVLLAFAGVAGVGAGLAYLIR

Cc1cc(C(=O)CSc2nc[nH]n2)c(C)n1Cc1ccccc1
EC50 [1]: > 30 µM (not active)

O=C1C(Cl)=C(N2CCN(C(c3ccccc3)c3ccc(Cl)cc3)CC2)C(=O)N1c1ccc(Cl)c(Cl)c1 (stereo not given)
IC50 (Bcl-2-related protein A1 [2]): > 100 µM (not active) | IC50 (Bcl-2-related protein A1 [3]): > 100 µM (not active) | IC50 [4]: > 100 µM (not active)

Cc1cccc2nc(-c3cccc(NC(=O)Cc4ccccc4)c3)cn12
CC50 [5]: 42.8 µM (active) | IC50 (cells [6]): 29.7 µM (active)

O=C(CNC(=O)c1ccccc1)N/N=C/c1ccc([N+](=O)[O-])o1
EC50 (cells [7]): 0.022 µM (active) | EC50 (Protein RecA): > 380 µM (inactive) | EC50 [8]: < 0.1 µM (active) | EC50 [9]: > 60 µM (not active) | AC50 [10]: > 380 µM (inactive)

CCCCCC#CCC#CCC#CCC#CCCCC(=O)O
IC50 [11]: 0.832 µM (active) | IC50 [12]: 30.4 µM (active) | IC50 (Genome polyprotein): 46.3 µM (not active) | IC50 [13]: 25.1 µM (active) | IC50 (Bcl-2-like protein 1): > 109 µM (not active) | IC50 [14]: 15.4 µM (active) | IC50 [15]: 32.1 µM (inactive) | IC50 [4]: > 100 µM (not active) | IC50 [16]: 0.441 µM (active)

CC(c1ccccc1)C1CC(=O)N(C2CCCCC2)C1=O (stereo not given)
IC50 [17]: 125 µM (inconclusive) | EC50 (Mucolipin-3): 4.1 µM (active) | EC50 (Ion channel NompC): > 29.9 µM (not active)

CCCCNC(=O)c1onc(CSc2ccc(Cl)cc2)c1C(=O)O
IC50 [18]: 9.93 µM (active) | IC50 [19]: 16.8 µM (not active)
